Molecular target: T1, human CRTH2 (Homo sapiens, UniProt Q9Y5Y4)
T1 construct: expressed in transfected cells; host or cells: CHO-K1
T1 sequence (Q9Y5Y4 1-395): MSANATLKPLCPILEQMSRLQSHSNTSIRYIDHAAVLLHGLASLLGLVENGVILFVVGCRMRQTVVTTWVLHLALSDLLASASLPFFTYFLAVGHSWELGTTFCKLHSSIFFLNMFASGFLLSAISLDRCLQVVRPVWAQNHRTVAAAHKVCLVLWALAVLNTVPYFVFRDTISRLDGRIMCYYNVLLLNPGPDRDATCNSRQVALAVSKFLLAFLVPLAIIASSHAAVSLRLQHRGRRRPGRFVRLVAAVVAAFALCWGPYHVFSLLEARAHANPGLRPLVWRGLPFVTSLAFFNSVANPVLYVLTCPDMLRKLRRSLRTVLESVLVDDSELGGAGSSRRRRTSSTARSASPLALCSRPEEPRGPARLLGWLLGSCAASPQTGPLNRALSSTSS
Assay: Human CRTH2 Receptor Binding Assay (whole cell, [3H]ramatroban competition)
Conditions: CHO-K1 cells expressing human CRTH2 and G-alpha16; 20 nM [3H]ramatroban; 1 hour, room temperature
Text: A whole cell receptor binding assay using [^3H]ramatroban as the competing radioactive ligand was employed to evaluate the compound binding activity to human CRTH2. The radioactive ligand [^3H]ramatroban was synthesized according to Sugimoto et. al. (Eur. J. Pharmacol. 524, 30-37, 2005) to a specific activity of 42 Ci/mmol.
A cell line stably expressing human CRTH2 was established by transfecting CHO-K1 cells with two mammalian expression vectors that harbored human CRTH2 and G-alpha16 cDNAs, respectively, using FuGene® 6 transfection reagent (from Roche). Stable clones expressing CRTH2 were selected by staining each clone with BM16 (BD Pharmingen™ from BD Biosciences, a division of Becton, Dickinson and Company), which is a rat monoclonal antibody to human CRTH2. The cells were maintained as monolayer cultures in Ham's F-12 medium containing 10% fetal bovine serum, 100 units/mL penicillin, 100 μg/mL streptomycin, 2 mM glutamine, 0.5 mg/mL G418 (geneticin) for CRTH2, and 0.2 mg/mL hygromycin-B (for G-alpha 16). For whole cell receptor binding assay, the monolayer cells were rinsed once with PBS (phosphate buffered saline), dissociated using ethylenediaminetetraacetate (Versene™ EDTA from Lonza Inc.), and suspended in PBS containing 10 mM MgCl2 and 0.06% BSA (bovine serum albumin) at 1.5×10^6 cells/mL.
The binding reactions (0.2 mL) were performed in 96-well plates at room temperature in PBS containing 1.5×10^5 cells, 10 mM MgCl2, 0.06% BSA, 20 nM [^3H]ramatroban, and test compound at various concentrations. After 1 hour of binding reactions, the cells were harvested on GF™/B filter microplates (microtiter plates with embedded glass fiber from PerkinElmer, Inc.) and washed 5 times with PBS using a Filtermate™ Harvester (a cell harvester that harvests and washes cells from microplates from PerkinElmer, Inc.). The radioactivities bound to the cells were determined using a microplate scintillation counter (TopCount® NXT, from PerkinElmer, Inc.) after adding 50 μL of Microscint™ 20 scintillation fluid (from PerkinElmer, Inc.) to each well of the filter plates. The radioactivity from non-specific binding was determined by replacing compound with 10 μM of 15(R)-15-methyl PGD2 (from Cayman Chemical Company) in the reaction mixtures. The radioactivity bound to the cells in the absence of compound (total binding) was determined by replacing compound with 0.25% of DMSO (dimethyl sulfoxide) in the reaction mixture. Specific binding data were obtained by subtracting the radioactivity of non-specific binding from each binding data.
The IC50 value is defined as the concentration of the tested compound that is required for 50% inhibition of total specific binding. In order to calculate the IC50 value, the percent inhibition data were determined for 7 concentrations for each compound. The percent inhibition for a compound at each concentration was calculated according to the following formula, [1−(specific binding in the presence of compound)/(total specific binding)]×100. The IC50 value was then obtained by fitting the percent inhibition data to a sigmoidal dose-response (4 parameter logistic) model in the XLfit® software Excel add-in program [from ID Business Solutions Ltd., model 205, where F(x)=(A+(B−A)/(1+((C/x)^D)))].

Row | Compound | IC50
1 | CS(=O)(=O)c1ccc(Oc2cc(CC(=O)O)cc3ccc(F)cc23)cc1 [Example 1-2, [6-fluoro-4-(4-methanesulfonyl-phenoxy)-naphthalen-2-yl]-acetic acid] | 3.1 nM
2 | CS(=O)(=O)c1ccc(Oc2cc(CC(=O)O)cc3ccc(Cl)cc23)cc1 [Example 1-3, [6-chloro-4-(4-methanesulfonyl-phenoxy)-naphthalen-2-yl]-acetic acid] | 8.5 nM
3 | CC(C)S(=O)(=O)c1ccc(Oc2cc(CC(=O)O)cc3ccc(F)cc23)cc1 [Example 1-4, {6-fluoro-4-[4-(propane-2-sulfonyl)-phenoxy]-naphthalen-2-yl}-acetic acid] | 6.7 nM
4 | O=C(O)Cc1cc(Oc2ccc(S(=O)(=O)C3CC3)cc2)c2cc(F)ccc2c1 [Example 1-5, [4-(4-cyclopropanesulfonyl-phenoxy)-6-fluoro-naphthalen-2-yl]-acetic acid] | 9.3 nM
5 | Cc1cc(S(C)(=O)=O)ccc1Oc1cc(CC(=O)O)cc2ccc(F)cc12 [Example 1-6, [6-fluoro-4-(4-methanesulfonyl-2-methyl-phenoxy)-naphthalen-2-yl]-acetic acid] | 7.1 nM
6 | Cc1cc(Oc2cc(CC(=O)O)cc3ccc(F)cc23)ccc1S(C)(=O)=O [Example 1-7, [6-fluoro-4-(4-methanesulfonyl-3-methyl-phenoxy)-naphthalen-2-yl]-acetic acid] | 3.5 nM
7 | CCS(=O)(=O)c1ccc(Oc2cc(CC(=O)O)cc3ccc(F)cc23)c(C)c1 [Example 1-8, [4-(4-ethanesulfonyl-2-methyl-phenoxy)-6-fluoro-naphthalen-2-yl]-acetic acid] | 3.3 nM
8 | CS(=O)(=O)c1ccc(Oc2cc(CC(=O)O)cc3ccc(F)cc23)nc1 [Example 1-9, [6-fluoro-4-(5-methanesulfonyl-pyridin-2-yloxy)-naphthalen-2-yl]-acetic acid] | 3.7 nM
9 | Cc1cc(S(C)(=O)=O)cnc1Oc1cc(CC(=O)O)cc2ccc(F)cc12 [Example 1-10, [6-fluoro-4-(5-methanesulfonyl-3-methyl-pyridin-2-yloxy)-naphthalen-2-yl]-acetic acid] | 3.3 nM
10 | CCS(=O)(=O)c1ccc(Oc2cc(CC(=O)O)cc3ccc(F)cc23)nc1 [Example 1-11, [4-(5-ethanesulfonyl-pyridin-2-yloxy)-6-fluoro-naphthalen-2-yl]-acetic acid] | 5.6 nM
11 | CCS(=O)(=O)c1cnc(Oc2cc(CC(=O)O)cc3ccc(F)cc23)c(C)c1 [Example 1-12, [4-(5-ethanesulfonyl-3-methyl-pyridin-2-yloxy)-6-fluoro-naphthalen-2-yl]-acetic acid] | 2.5 nM
12 | CCS(=O)(=O)c1cnc(Oc2cc(CC(=O)O)cc3ccc(F)cc23)c(Br)c1 [Example 1-13, [4-(3-bromo-5-ethanesulfonyl-pyridin-2-yloxy)-6-fluoro-naphthalen-2-yl]-acetic acid] | 2.3 nM
13 | CS(=O)(=O)c1cnc(Oc2cc(CC(=O)O)cc3ccc(F)cc23)c(Br)c1 [Example 1-14, [4-(3-bromo-5-methanesulfonyl-pyridin-2-yloxy)-6-fluoro-naphthalen-2-yl]-acetic acid] | 19.1 nM
14 | CCS(=O)(=O)c1ccc(Oc2cc(CC(=O)O)cc3ccc(OC)cc23)cc1 [Example 1-15, [4-(4-Ethanesulfonyl-phenoxy)-6-methoxy-naphthalen-2-yl]-acetic acid] | 5.3 nM
15 | CCS(=O)(=O)c1ccc(Oc2cc(CC(=O)O)cc3ccc(C(F)(F)F)cc23)nc1 [Example 1-16, [4-(5-Ethanesulfonyl-pyridin-2-yloxy)-6-trifluoromethyl-naphthalen-2-yl]-acetic acid] | 19.1 nM
16 | CCS(=O)(=O)c1ccc(Oc2cc(CC(=O)O)cc3ccc(C(F)(F)F)cc23)cc1 [Example 1-17, [4-(4-Ethanesulfonyl-phenoxy)-6-trifluoromethyl-naphthalen-2-yl]-acetic acid] | 10.5 nM
17 | CCS(=O)(=O)c1ccc(Oc2cc(CC(=O)O)cc3ccc(OC(F)(F)F)cc23)nc1 [Example 1-18, [4-(5-Ethanesulfonyl-pyridin-2-yloxy)-6-trifluoromethoxy-naphthalen-2-yl]-acetic acid] | 2.6 nM
18 | CCS(=O)(=O)c1ccc(Oc2cc(CC(=O)O)cc3ccc(OC(F)(F)F)cc23)cc1 [Example 1-19, [4-(4-Ethanesulfonyl-phenoxy)-6-trifluoromethoxy-naphthalen-2-yl]-acetic acid] | 2.6 nM
19 | CCS(=O)(=O)c1ccc(Oc2cc(CC(=O)O)cc3cc(F)ccc23)cc1 [Example 1-20, [4-(4-Ethanesulfonyl-phenoxy)-7-fluoro-naphthalen-2-yl]-acetic acid] | 18.1 nM
20 | CCS(=O)(=O)c1ccc(Oc2cc(CC(=O)O)cc3ccc(OC)cc23)nc1 [Example 1-21, [4-(5-Ethanesulfonyl-pyridin-2-yloxy)-6-methoxy-naphthalen-2-yl]-acetic acid] | 4.7 nM
21 | CCS(=O)(=O)c1ccc(Oc2cc(CC(=O)O)cc3cccc(F)c23)cc1 [Example 1-22, [4-(4-Ethanesulfonyl-phenoxy)-5-fluoro-naphthalen-2-yl]-acetic acid] | 5.4 nM
22 | CCS(=O)(=O)c1ccc(Oc2cc(CC(=O)O)cc3cc(OC)c(OC)cc23)cc1 [Example 1-23, [4-(4-Ethanesulfonyl-phenoxy)-6,7-dimethoxy-naphthalen-2-yl]-acetic acid] | 97.3 nM
23 | CCS(=O)(=O)c1ccc(Oc2c(C)c(CC(=O)O)cc3ccc(F)cc23)cc1 [Example 2-1, [4-(4-ethanesulfonyl-phenoxy)-6-fluoro-3-methyl-naphthalen-2-yl]-acetic acid] | 3.2 nM
24 | Cc1c(CC(=O)O)cc2ccc(F)cc2c1Oc1ccc(S(C)(=O)=O)cc1 [Example 2-2, [6-fluoro-4-(4-methanesulfonyl-phenoxy)-3-methyl-naphthalen-2-yl]-acetic acid] | 2.3 nM
25 | Cc1cc(S(C)(=O)=O)ccc1Oc1c(C)c(CC(=O)O)cc2ccc(F)cc12 [Example 2-3, [6-fluoro-4-(4-methanesulfonyl-2-methyl-phenoxy)-3-methyl-naphthalen-2-yl]-acetic acid] | 7.5 nM
26 | Cc1c(CC(=O)O)cc2ccc(F)cc2c1Oc1ccc(S(=O)(=O)C(C)C)cc1 [Example 2-4, {6-fluoro-3-methyl-4-[4-(propane-2-sulfonyl)-phenoxy]-naphthalen-2-yl}-acetic acid] | 2.8 nM
27 | Cc1c(CC(=O)O)cc2ccc(F)cc2c1Oc1ccc(S(=O)(=O)C2CC2)cc1 [Example 2-5, [4-(4-cyclopropanesulfonyl-phenoxy)-6-fluoro-3-methyl-naphthalen-2-yl]-acetic acid] | 3.5 nM
28 | Cc1cc(Oc2c(C)c(CC(=O)O)cc3ccc(F)cc23)ccc1S(C)(=O)=O [Example 2-6, [6-fluoro-4-(4-methanesulfonyl-3-methyl-phenoxy)-3-methyl-naphthalen-2-yl]-acetic acid] | 2.7 nM
29 | Cc1c(CC(=O)O)cc2ccc(Cl)cc2c1Oc1ccc(S(C)(=O)=O)cc1 [Example 2-7, [6-Chloro-4-(4-methanesulfonyl-phenoxy)-3-methyl-naphthalen-2-yl]-acetic acid] | 2.2 nM
30 | Cc1cc(Oc2c(C)c(CC(=O)O)cc3ccc(Cl)cc23)ccc1S(C)(=O)=O [Example 2-8, [6-chloro-4-(4-methanesulfonyl-3-methyl-phenoxy)-3-methyl-naphthalen-2-yl]-acetic acid] | 4.5 nM

Reference: US8642629B2, “Naphthylacetic acids” (Hoffmann-La Roche Inc., priority 2008, dated 2014)
